Values joined by “and” are separate entries in the source; they are usually repeats but may differ in a detail not shown here. Identical values can stand only once.
Assays:
Assay type in all cases: physicochemical
[1] = Sublimation test (cold finger, HPLC quantification of sublimate); conditions: for Sublimation (result in words): conditions of the sublimation test, non-sublimating = less than 1% in 72 hours at 150 mBar, 60° C.; for Sublimate: drug substance, Pressure: 150 mbar, Test period: 72 hrs
Text: The property of sublimation can be observed and quantified with known methods to measure sublimation. For example, sublimation can be measured in an apparatus with a chamber in which the test compound is placed in its solid state and maintained in that state by controlled temperature. The gas phase in the chamber, optionally under low pressure, can be analyzed for content of test compound. It is also possible to continuously clear the test compound in the gas phase from the chamber either by a continuous renewal stream of a gas or by creating a sink for the test compound out of the gas phase, for example by a cold surface. The amount of material collected from sublimation or escaped from the sample by sublimation can be analyzed. The degree of sublimation is expressed as the fraction (as percentage) of the initial sample size.
The term ‘non-sublimating’ salt is defined to be a salt of S- or R-mirtazapine, from which less than 1% of the mirtazapine is sublimating from the sample, calculated on the basis of the amount of the base, when a sample of approximately 10 mg (for example an amount between 8-12 mg) is placed for the duration of 72 hours under standard conditions of 150 mBar pressure and 60° C. temperature.
Figure: Schematic presentation of the sublimation test equipment. A sample is placed on the bottom of a vessel, which is closed at the top by a vessel-shaped stopper into which cooling liquid (CL) is circulating and which vessel has an outlet connected to a vacuum pump (Vac). The vessel is placed in a closed chamber under constant temperature control (TC). A sublimate (Subl) can accumulate against the surface of the stopper within the vessel.
A sample (approximately 10 mg) was placed in a sample chamber of sublimation test equipment as illustrated in FIG. 1. The temperature in the sample chamber is controllable. The sample holder has a reduced pressure, which was 150 mBar by default. The sample chamber also consists of a section with reduced temperature (the “cold finger”), where the temperature is approximately 5° C. The majority of material that sublimates in the test sample with high temperature will precipitate on the cold finger. The amount of material on the cold finger after a test period of 72 hrs has been quantified using HPLC analysis. The degree of sublimation is expressed as the fraction material on the cold finger (as percentage) of the initial sample size. Additionally, the sublimation of active compound from tablets “drug product” has been tested.

[2] = Sublimation observations outside the standard test
[3] = Hygroscopicity (dynamic vapor sorption / water uptake from air); conditions: for Hygroscopicity / affinity for water: environmental air, ambient conditions, method not stated; for Hygroscopicity: dynamic vapor sorption measurement
Method: To a solution of 3.01 g of S-mirtazapine in 5 ml of methanol was added at room temperature a solution of 1290 μl of hydrobromic acid in 20 ml of ethyl acetate. […] The mixture was cooled to 0° C. whereupon crystallization started. The white crystals were collected by filtration and were dried in a vacuum oven at 40° C. […] A water free drug substance sample attracts water when it comes in contact with environmental air, while it may loose water upon drying.

[4] = Temperature: 60° C., DL = level of detection

CN1CCN2c3ncccc3Cc3ccccc3C2C1.O=C(O)C(F)(F)F (stereo not drawn) [S-mirtazapine trifluoroacetic acid salt]
Sublimation (result in words) ([1]; listed as trifluoroacetic acid salt of S- or R-mirtazapine, trifluoroacetic acid salt): showed sublimation | Sublimation (result in words) ([1]; trifluoroacetic acid salt): not a non-sublimating salt

CN1CCN2c3ncccc3Cc3ccccc3[C@H]2C1 [S-mirtazapine, 1,2,3,4,10,14b-hexahydro-2-methyl-pyrazino[2,1-a]pyrido[2,3-c][2]benzazepine, reference compound]
Sublimation (result in words) [1]: sublimates at the conditions used | Sublimate ([1]; Temperature: 40° C., fraction of initial sample on cold finger, listed as S-mirtazapine Batch E): 0.75% | Sublimate ([1]; Temperature: 40° C., fraction of initial sample on cold finger, listed as S-mirtazapine Batch J): 0.88% | Sublimate ([1]; Temperature: 60° C., DL = level of detection, listed as S-mirtazapine Batch E): 5.32% and 2.22% | Sublimate ([1]; Temperature: 60° C., DL = level of detection, listed as S-mirtazapine Batch J): 4.29% | Sublimation at ambient temperature ([2]; ambient temperature): slowly sublimating

Br.CN1CCN2c3ncccc3Cc3ccccc3[C@H]2C1 [S-mirtazapine•HBr, S-mirtazapine hydrobromic acid salt]
Sublimation (result in words) [1]: do not sublimate | Hygroscopicity / affinity for water [3]: forms a monohydrate under ambient conditions

CN1CCN2c3ncccc3Cc3ccccc3[C@H]2C1.Cl [S-mirtazapine•HCl, S-mirtazapine hydrochloric acid salt]
Sublimate [1, 4]: 0.2% | Temperature above which the compound starts to sublime [2]: above 170 °C | Hygroscopicity [3]: very hygroscopic

CN1CCN2c3ncccc3Cc3ccccc3[C@H]2C1.O=C(O)/C=C/C(=O)O [S-mirtazapine•fumaric acid, S-mirtazapine fumaric acid salt]
Sublimation (result in words) [1]: do not sublimate | Hygroscopicity / affinity for water [3]: attracts water from environmental air to form a hydrate

CN1CCN2c3ncccc3Cc3ccccc3[C@H]2C1.O=C(O)/C=C\C(=O)O [S-mirtazapine•maleic acid, S-mirtazapine maleic acid salt]
Sublimation (result in words) [1]: do not sublimate | Hygroscopicity [3]: not hygroscopic | Hygroscopicity / affinity for water [3]: not hygroscopic

CN1CCN2c3ncccc3Cc3ccccc3C2C1.CS(=O)(=O)O (stereo not drawn) [S-mirtazapine•methanesulfonic acid, S-mirtazapine methanesulfonic acid salt]
Sublimation (result in words) [1]: non-sublimation | Sublimate [1, 4]: 0.1% and 0.0% | Hygroscopicity / affinity for water [3]: non-hygroscopicity

— patent publication US20070111993A1, “Pharmaceutical composition comprising a salt of mirtazapine” (AKZO NOBEL N.V., priority 2004, published 2007)
